Laboratory results as given in patent US8916517B2, “Analogs of pituitary adenylate cyclase-activating polypeptide (PACAP) and methods for their use” (The Administrators of the Tulane Educational Fund, priority 2009, dated 2014).
Values joined by “and” are separate entries in the source; they are usually repeats but may differ in a detail not shown here. Equal entries are not always repeated. “Also recorded” adds a separate entry of the source. Where two headings read alike, the source gives them in different places.

Experiments:
[1] = system: light-chain immunoglobulin-secreting human multiple myeloma cells; assay: Inhibition of proliferation of light-chain immunoglobulin-secreting human multiple myeloma cells (bromodeoxyuridine incorporation); type: cell-based
Experimental: FIG. 3 is a table listing the EC50 for the inhibitory effects of PACAP38, PACAP27, VIP, and eight novel PACAP analogs on the proliferation of light-chain immunoglobulin-secreting myeloma cells. The light-chain immunoglobulin-secreting human multiple myeloma cells were cultured in RPMI 1640 medium supplemented with 10% non-inactivated fetal bovine serum and 0.05 mM 2-mercaptoethanol. The effects of PACAP38, PACAP27, VIP, and the eight novel PACAP analogs on myeloma cell proliferation were assessed by determining incorporation of bromodeoxyuridine into DNA during cell division. The number of myeloma cells approximately doubled during the 24-hour incubation period in the absence of treatment with PACAP-like peptides. Five different concentrations, ranging from 10^-13 M to 10^-5 M, were tested for PACAP38, PACAP27, VIP, and each of the eight novel PACAP analogs. The EC50 was calculated from the concentration response curve using the software package Prism (Graph Pad, San Diego, CA). Each value represents the mean of four-six determinations per experiment. The EC50 for PACAP38 is based on the average of four separate experiments, while the EC50 for PACAP27 and [Pip^3,Aib ^16,28,Ala^17,Lys^34,D-LysIPACAP 38 (SEQ ID NO: 4) is based on the average of two separate experiments.
FIG. 4 is a graph showing a representative concentration response curve from a single experiment on the inhibitory effects PACAP38 and six PACAP38 analogs on the proliferation of light-chain immunoglobulin-secreting human myeloma cells. Each value represents the mean plus/minus the standard error of four-six determinations. Note that replacing pipecolic acid in position 3 of the novel analogs with either nipecotic acid or isonipecotic acid results in an analog with more than four orders of magnitude lower inhibitory potency.
The effects of PACAP38, PACAP27, VIP, and PACAP analogs on myeloma cell proliferation were assessed by determining incorporation bromodeoxyuridine into DNA during cell division. […]

[2] = system: rat renal proximal tubule epithelial cells; assay: Reduction of cisplatin-induced apoptotic cell death of renal proximal tubule epithelial cells (histone-associated DNA fragmentation); type: cell-based; settings: cisplatin 24 hours; for reduction in cisplatin-induced apoptotic cell death: 10^-6 M in the medium
[3] = system: ischemia/reperfusion injury to the kidney; assay: Serum creatinine after renal ischemia/reperfusion injury in mice; type: in vivo, male C57BL/6 mice; settings: 20 micrograms i.p. 1, 24 and 48 h after start of reperfusion; 45 min renal artery clamping; 72 hours
Experimental: FIG. 6 is a graph showing the effects of PACAP38 and two novel PACAP analogs on serum creatinine levels in mice following ischemia/reperfusion injury to the kidney. The renal artery in male C57BL/6 mice was clamped bilaterally for 45 minutes in all mice except for the sham-operated mice. Twenty micrograms of PACAP38 or one of the PACAP analogs were given intraperitoneally 1 hour after the start of reperfusion and additional doses were given at 24 and 48 hours after the initial dose. The sham-operated group of mice was injected intraperitoneally with PACAP38 on the same schedule as the mice subjected to ischemia/reperfusion. The control group of mice was injected intraperitoneally with the same volume of saline as for the injections of PACAP38 on the same schedule. All of the mice were euthanized 24 hours after the final injection of saline, PACAP38 or one of the novel PACAP analogs. Each value represents the mean plus/minus the standard error of four determinations. **p<0.01 and *p<0.05 compared to the ischemia/reperfusion group treated with saline. I/R, ischemia/reperfusion; sham, sham-operated.

[4] = system: human myeloma cell line (MM.1S); assay: Proliferation of myeloma cell line MM.1S (bromodeoxyuridine incorporation); type: cell-based; settings: FIG. 8
Experimental: (§1) FIG. 8 is a graph showing the effects PACAP38, [Pip^3,Ala^14,17,Aib^1 6,28,Lys^34,D-Lys^38 (SEQ ID NO: 6) and dexamethasone on the proliferation of light-chain immunoglobulin-secreting human myeloma cell line (MM.1S) that was derived from a patient who was being treated for multiple myeloma with a dexamethasome-containing regimen. The light-chain immunoglobulin-secreting multiple myeloma cells were cultured in RPMI 1640 medium supplemented with 10% non-inactivated fetal bovine serum and 0.05mM 2-mercaptoethanol. The effects of dexamethasone, PACAP38 and the novel PACAP38analog on cell proliferation were assessed by determining the incorporation of bromodeoxyuridine into DNA during cell division. Each value represents the mean plus/minus the standard error of four-six determinations. The cell lines in FIGS. 8 and 9 were obtained from the same patient at different stages of the treatment (Greenstein et al., Exp HematoI31 :271-282, 2003).

[5] = system: human myeloma cell line (MM.1 R); assay: Proliferation of dexamethasone-resistant myeloma cell line MM.1R (bromodeoxyuridine incorporation); type: cell-based; settings: FIG. 9
Experimental: as §1, with “FIG. 9” for “FIG. 8”, “PACAP38, [Pip^3,Ala^14,17,Aib^16,28,Lys^34,D-Lys^38] PACAP38(SEQ” for “PACAP38, [Pip^3,Ala^14,17,Aib^1 6,28,Lys^34,D-Lys^38 (SEQ”, “line (MM.1 R)” for “line (MM.1S)”, “novel PACAP38 analog” for “novel PACAP38analog”, “four-six determination.” for “four-six determinations.”, “Exp Hematol 31” for “Exp HematoI31”

[6] = system: human renal proximal tubule epithelial cells; assay: Reduction of gentamicin-induced apoptotic cell death of human renal proximal tubule epithelial cells; type: cell-based; settings: gentamicin 24 hours
Experimental: The inhibitory effects of PACAP38 and the novel PACAP analog on apoptotic cell death was assessed by the quantitative determination of cytoplasmic histone-associated DNA-fragmentation (mono- and oligonucleosomes) after exposure to gentamicin for 24 hours. […] Each value represents the mean plus/minus the standard deviation of four determinations. **p<0.01 and *p<0.05 compared to the group treated only with gentamicin.

[7] = system: transient focal cerebral ischemia; settings: 48 hours, cited from earlier work
[8] = system: rat hippocampal neuron/glia co-cultures; settings: gp120 as neurotoxin; cited from earlier work
[9] = humans; cited from earlier work
PAC1 receptor = target: T1, PAC1 receptor (Homo sapiens, UniProt P41586); settings: cited from earlier work
T1 sequence (P41586 21-468): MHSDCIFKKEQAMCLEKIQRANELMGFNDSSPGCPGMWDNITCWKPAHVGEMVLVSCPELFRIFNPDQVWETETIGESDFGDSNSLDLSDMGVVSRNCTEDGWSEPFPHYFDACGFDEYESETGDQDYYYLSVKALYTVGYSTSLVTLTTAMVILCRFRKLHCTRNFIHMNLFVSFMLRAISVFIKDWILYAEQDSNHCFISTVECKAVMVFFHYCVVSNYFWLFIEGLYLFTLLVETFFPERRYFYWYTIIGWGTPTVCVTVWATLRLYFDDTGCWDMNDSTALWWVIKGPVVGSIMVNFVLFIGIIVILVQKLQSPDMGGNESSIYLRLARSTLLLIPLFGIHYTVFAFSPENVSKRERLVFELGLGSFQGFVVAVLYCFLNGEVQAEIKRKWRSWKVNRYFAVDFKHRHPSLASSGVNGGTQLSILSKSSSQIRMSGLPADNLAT

[10] = rat, in vivo, iv; cited from earlier work

HSDGIFTDSYSRYRKQMAVKKYLAAVLGKRYKQRVKNK [PACAP38]
EC50 ([1]; 24-hour incubation, FIG. 3, read-out: concentration giving 50% inhibition of the rate of proliferation (EC50)): ~0.25 nM | reduction in cisplatin-induced apoptotic cell death [2]: significant reduction | reversal of the rise in serum creatinine caused by ischemia/reperfusion [3]: almost completely reversed | sensitivity of cell proliferation [4]: sensitive | sensitivity of cell proliferation [5]: still sensitive | cytoprotective potency, PACAP38 versus [Pip^3]PACAP38 [6]: more effective | reduction in gentamicin-induced apoptotic cell death ([6]; various concentrations): significant dose-dependent reduction; also recorded: dose-dependent inhibition | reduction of the infarct volume ([7]; continuous i.v. infusion beginning 4 hours after start of 2-hour MCAO): approximately 51% | reduction of the infarct volume ([7]; continuous i.v. infusion beginning 8 hours after start of 2-hour MCAO): ~22% | reduction of the infarct volume ([7]; continuous i.v. infusion beginning 12 hours after start of 2-hour MCAO): ~12%

PACAP
peaks of bimodal dose-response curve for prevention of neuronal death [8]: 10^−13 M and 10^−10 M | only untoward effect reported [9]: transient flushing

VIP
potency compared with PACAP38 or the novel PACAP38 analogs ([1]; inhibition of myeloma cell proliferation): significantly less potent | reduction in cisplatin-induced apoptotic cell death [2]: reduced | cytoprotective potency compared with PACAP38 ([2]; comparable concentrations): significantly less potent than PACAP38 | affinity for PAC1 receptor relative to PACAP (PAC1 receptor): 1,000 times less

[^125I]-PACAP38
half-life in the bloodstream [10]: 5 to 6 min
